Test results taken from PubChem BioAssay (NCI).
Where “and” joins values, the source holds several entries; their conditions need not be identical. Equal entries are not always repeated.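 Growth conditions: 96-well plates. Treatment: test compound, 48 hours, 5 concentrations. Analysis: linear interpolation between bracketing concentrations; unreached endpoints set to highest concentration. GI50 = concentration required for 50% inhibition of growth. At the TGI there is no net growth.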

Assays:
Assay in all cases: inhibition of tumour cell growth, NCI panel, 48 h
A549 NSCLC = system: A549 NSCLC
ACHN renal = system: ACHN renal
EKVX NSCLC = system: EKVX NSCLC
HOP-62 NSCLC = system: HOP-62 NSCLC
MDA-N = system: MDA-N
OVCAR-4 ovarian = system: OVCAR-4 ovarian
SK-OV-3 ovarian = system: SK-OV-3 ovarian
SR leukemia = system: SR leukemia
T-47D breast = system: T-47D breast
U251 CNS = system: U251 CNS

Structure (SMILES)	TGI (A549 NSCLC)	TGI (ACHN renal)	TGI (EKVX NSCLC)	TGI (HOP-62 NSCLC)	TGI (MDA-N)	TGI (OVCAR-4 ovarian)	TGI (SK-OV-3 ovarian) [µM]	TGI (SR leukemia) [µM]	TGI (T-47D breast)	TGI (U251 CNS)	GI50 (A549 NSCLC) [µM]	GI50 (ACHN renal) [µM]	GI50 (HOP-62 NSCLC) [µM]	GI50 (MDA-N) [µM]	GI50 (OVCAR-4 ovarian) [µM]	GI50 (T-47D breast) [µM]	GI50 (U251 CNS) [µM]
CN(Cc1cc(Cl)c(Cl)cc1NC(=O)CN)[C@H]1CCCC[C@@H]1N1CCCC1	> 100 µM	> 100 µM	> 100 µM	> 100 µM	31.4 µM	> 100 µM	> 100	49.9	> 100 µM	18.8 µM							
C=C(C(=O)O[C@H]1C(=O)C2=C(C)CCC3C(=C)C(=O)O[C@@H]3C2[C@]1(C)O)C1CC[C@]2(C)CCCC(=C)[C@H]2C1 (some centres not stated)	12.9 µM and 24.5 µM	11 µM and 8.85 µM	17.8 µM and 22.7 µM	10.2 µM and 20.5 µM	11.6 µM and 8.45 µM	13.4 µM and 11.3 µM	30.5	> 100	13.1 µM and 5.03 µM	7.04 µM and 9.95 µM	5.59	5.19	3.09	0.117	6.69	2.06	0.117
C[C@H]1COC2=C1C(=O)C(=O)c1c2ccc2c1CCCC2(C)C	4.55 µM	> 81.7 µM	71.7 µM	21.2 µM	3.26 µM	> 100 µM	83.6	> 42.7	> 100 µM	27.4 µM							
CC(=O)OC1COC(Nc2nc(N)n(C)c(=O)c2N=O)C(OC(C)=O)C1OC(C)=O (configuration not stated)	> 10 µM	> 10 µM	> 10 µM	> 10 µM	> 10 µM	> 10 µM	> 10	> 10	> 10 µM	> 10 µM							
Cc1sc2nc3n(c(=O)c2c1C)N=CN(c1ccc(F)cc1)C3	> 100 µM	> 100 µM	> 100 µM	> 100 µM	> 100 µM	38.5 µM	> 100	> 100	> 100 µM	> 100 µM							
c1ccc(CN2CCN3CCN(CC2)CCN(Cc2ccccc2)CC3)cc1	> 56.1 µM	65.6 µM	32.6 µM	32.5 µM	12.2 µM	20.3 µM	40	16.5	35.8 µM	15.8 µM							
CN(C)CCCNCc1cccc2ccccc12	> 100 µM	> 100 µM	> 100 µM	> 100 µM	> 100 µM	> 100 µM	> 100	68.5	> 100 µM	> 100 µM							
C=C(C)CNC(=S)N(N)c1ccc2ccccc2c1	> 100 µM	> 100 µM	88.9 µM	> 100 µM	> 100 µM	> 100 µM	> 100	> 100	> 100 µM	> 100 µM							
CC1(C)CCc2c(c(N=Nc3ccc(F)cc3)c3ccccc3c2O)O1	32.2 µM	> 100 µM	97 µM	57.3 µM	31.5 µM	> 100 µM	> 100	77.4	86.8 µM	> 100 µM							
Oc1cc(Br)cc2cc(Cl)cnc12	> 56.1 µM	> 68 µM	45.2 µM	> 60.4 µM	> 100 µM	12.8 µM	> 68.9	> 30.2	16.7 µM	> 82.8 µM							
CC(C)(C)[Si](C)(C)OCC1OC(n2cnc3c(=O)[nH]c(N)nc32)C(O[Si](C)(C)C(C)(C)C)C1O[Si](C)(C)C(C)(C)C (configuration not stated)	7.61 µM	12.9 µM	> 46.6 µM	7.73 µM	3.3 µM	3.65 µM	4.45	5.48	5.14 µM	3.71 µM							
CN1CCN(C2=CC(=O)c3c(O)ccc(O)c3C2=O)CC1	3.5 µM	2.88 µM	3.26 µM	2.16 µM	0.325 µM	3.46 µM	> 10	8.1	2.04 µM	2.97 µM							
